Results as given in ChEMBL document CHEMBL4831516, “Development of Membrane-Active Honokiol/Magnolol Amphiphiles as Potent Antibacterial Agents against Methicillin-Resistant Staphylococcus aureus (MRSA)” (J Med Chem, 2021).
Converted amounts (≈) assume the structure as drawn.

How the values were obtained:
Salmonella enterica [1] = experiment: Antibacterial activity against Salmonella enterica 349812 assessed as inhibition of visible growth incubated for 16 to 18 hrs by CLSI method; assay type: functional; settings: time 16-18 hrs, read-out: MIC100
Staphylococcus aureus [2] = experiment: Antibacterial activity against methicillin-resistant Staphylococcus aureus clinical isolate M-15 assessed as inhibition of visible growth incubated for 16 to 18 hrs by CLSI method; assay type: functional; settings: time 16-18 hrs, read-out: MIC100
Enterococcus faecalis = experiment: Antibacterial activity against Enterococcus faecalis ATCC29212 assessed as inhibition of visible growth incubated for 16 to 18 hrs by CLSI method; assay type: functional; settings: time 16-18 hrs, read-out: MIC100
Staphylococcus aureus [3] = experiment: Antibacterial activity against methicillin-resistant Staphylococcus aureus clinical isolate M-18 assessed as inhibition of visible growth incubated for 16 to 18 hrs by CLSI method; assay type: functional; settings: time 16-18 hrs, read-out: MIC100
[4] = tested on: Stenotrophomonas maltophilia; experiment: Antibacterial activity against Stenotrophomonas maltophilia assessed as inhibition of visible growth incubated for 16 to 18 hrs by CLSI method; assay type: functional; settings: time 16-18 hrs, read-out: MIC100
Escherichia coli = experiment: Antibacterial activity against Escherichia coli ATCC25922 assessed as inhibition of visible growth incubated for 16 to 18 hrs by CLSI method; assay type: functional; settings: time 16-18 hrs, read-out: MIC100
Salmonella enterica [5] = experiment: Antibacterial activity against Salmonella enterica 8389 assessed as inhibition of visible growth incubated for 16 to 18 hrs by CLSI method; assay type: functional; settings: time 16-18 hrs, read-out: MIC100
Staphylococcus aureus [6] = experiment: Antibacterial activity against methicillin-resistant Staphylococcus aureus clinical isolate M-14 assessed as inhibition of visible growth incubated for 16 to 18 hrs by CLSI method; assay type: functional; settings: time 16-18 hrs, read-out: MIC100
[7] = Hemolytic activity in sheep RBC assessed as hemolysis incubated for 1 hr; assay type: ADME, cell-based, Ovis aries, Erythrocyte; settings: sheep red blood cells (erythrocytes)
[8] = Selectivity index, HC50 for hemolytic activity in sheep RBC to MIC for antibacterial activity against Staphylococcus aureus ATCC29213; assay type: toxicity; settings: sheep red blood cells (erythrocytes), read-out: Selectivity Index
Staphylococcus aureus [9] = experiment: Antibacterial activity against methicillin-resistant Staphylococcus aureus clinical isolate M-20 assessed as inhibition of visible growth incubated for 16 to 18 hrs by CLSI method; assay type: functional; settings: time 16-18 hrs, read-out: MIC100
Staphylococcus aureus [10] = experiment: Antibacterial activity against Staphylococcus aureus ATCC29213 assessed as inhibition of visible growth incubated for 16 to 18 hrs by CLSI method; assay type: functional; settings: time 16-18 hrs, read-out: MIC100
Staphylococcus aureus [11] = experiment: Antibacterial activity against methicillin-resistant Staphylococcus aureus clinical isolate M-17 assessed as inhibition of visible growth incubated for 16 to 18 hrs by CLSI method; assay type: functional; settings: time 16-18 hrs, read-out: MIC100
Bacillus subtilis = experiment: Antibacterial activity against Bacillus subtilis assessed as inhibition of visible growth incubated for 16 to 18 hrs by CLSI method; assay type: functional; settings: time 16-18 hrs, read-out: MIC100
Staphylococcus aureus [12] = experiment: Antibacterial activity against methicillin-resistant Staphylococcus aureus clinical isolate M-12 assessed as inhibition of visible growth incubated for 16 to 18 hrs by CLSI method; assay type: functional; settings: time 16-18 hrs, read-out: MIC100
Staphylococcus aureus [13] = experiment: Antibacterial activity against methicillin-resistant Staphylococcus aureus clinical isolate M-19 assessed as inhibition of visible growth incubated for 16 to 18 hrs by CLSI method; assay type: functional; settings: time 16-18 hrs, read-out: MIC100
Staphylococcus aureus [14] = experiment: Antibacterial activity against methicillin-resistant Staphylococcus aureus clinical isolate M-13 assessed as inhibition of visible growth incubated for 16 to 18 hrs by CLSI method; assay type: functional; settings: time 16-18 hrs, read-out: MIC100
Staphylococcus aureus [15] = experiment: Antibacterial activity against methicillin-resistant Staphylococcus aureus clinical isolate M-11 assessed as inhibition of visible growth incubated for 16 to 18 hrs by CLSI method; assay type: functional; settings: time 16-18 hrs, read-out: MIC100
Micrococcus luteus = experiment: Antibacterial activity against Micrococcus luteus assessed as inhibition of visible growth incubated for 16 to 18 hrs by CLSI method; assay type: functional; settings: time 16-18 hrs, read-out: MIC100
Staphylococcus aureus [16] = experiment: Antibacterial activity against methicillin-resistant Staphylococcus aureus clinical isolate M-16 assessed as inhibition of visible growth incubated for 16 to 18 hrs by CLSI method; assay type: functional; settings: time 16-18 hrs, read-out: MIC100

SMILES | MIC (Salmonella enterica [1]) [µg/mL] | MIC (Staphylococcus aureus [2]) [µg/mL] | MIC (Enterococcus faecalis) [µg/mL] | MIC (Staphylococcus aureus [3]) [µg/mL] | MIC [4] [µg/mL] | MIC (Escherichia coli) [µg/mL] | MIC (Salmonella enterica [5]) [µg/mL] | MIC (Staphylococcus aureus [6]) [µg/mL] | HC50 at 1 h [7] [µg/mL] | selectivity ratio [8] | MIC (Staphylococcus aureus [9]) [µg/mL] | MIC (Staphylococcus aureus [10]) [µg/mL] | MIC (Staphylococcus aureus [11]) [µg/mL] | MIC (Bacillus subtilis) [µg/mL] | MIC (Staphylococcus aureus [12]) [µg/mL] | MIC (Staphylococcus aureus [13]) [µg/mL] | MIC (Staphylococcus aureus [14]) [µg/mL] | MIC (Staphylococcus aureus [15]) [µg/mL] | MIC (Micrococcus luteus) [µg/mL] | MIC (Staphylococcus aureus [16]) [µg/mL]
C=CCc1ccc(OCCC[N+](C)(C)CC(=O)NCCC)c(-c2ccc(OCCC[N+](C)(C)CC(=O)NCCC)c(CC=C)c2)c1.[Br-].[Br-] | 32 | 2 | 2 | 4 | 16 | 16 | 32 | 2 | 682 | 341 | 2 | 2 | 4 | 1 | 4 | 4 | 4 | 4 | 4 | 2
C=CCc1ccc(OCCCC[N+](C)(C)CC(=O)NCCCCCC)c(-c2ccc(OCCCC[N+](C)(C)CC(=O)NCCCCCC)c(CC=C)c2)c1.[Br-].[Br-] | 16 | 8 | 2 | 4 | 8 | 16 | 8 | 8 | 573 | 143 | 4 | 4 | 4 | 4 | 2 | 4 | 2 | 2 | 2 | 8
CN(C)c1cc(NC(=O)CNC(C)(C)C)c(O)c2c1C[C@H]1C[C@H]3[C@H](N(C)C)C(O)=C(C(N)=O)C(=O)[C@@]3(O)C(O)=C1C2=O [TIGECYCLINE] | – | 0.5 (≈ 0.854 µM) | – | 0.25 (≈ 0.427 µM) | – | – | – | 1 (≈ 1.71 µM) | – | – | 0.5 (≈ 0.854 µM) | – | 0.5 (≈ 0.854 µM) | – | 1 (≈ 1.71 µM) | 0.5 (≈ 0.854 µM) | 1 (≈ 1.71 µM) | 0.5 (≈ 0.854 µM) | – | 0.25 (≈ 0.427 µM)
C[C@H]1COc2c(N3CCN(C)CC3)c(F)cc3c(=O)c(C(=O)O)cn1c23.C[C@H]1COc2c(N3CCN(C)CC3)c(F)cc3c(=O)c(C(=O)O)cn1c23.O [LEVOFLOXACIN] | 0.25 | 1 | 0.25 | 0.5 | 0.5 | – | 0.25 | 1 | – | – | 1 | 0.5 | 5 | 0.5 | 1 | 1 | 5 | 1 | 0.25 | 1
C=CCc1ccc(OCC[N+](C)(C)CC(=O)N(CCCC)CCCC)c(-c2ccc(OCC[N+](C)(C)CC(=O)N(CCCC)CCCC)c(CC=C)c2)c1.[Br-].[Br-] | 32 | 2 | 2 | 8 | 32 | 16 | 32 | 4 | > 1280 | > 320 | 8 | 4 | 2 | 4 | 4 | 8 | 4 | 4 | 4 | 2
C=CCc1ccc(OCCCC[N+](C)(C)CC(=O)N(CCCC)CCCC)c(-c2ccc(OCCCC[N+](C)(C)CC(=O)N(CCCC)CCCC)c(CC=C)c2)c1.[Br-].[Br-] | 8 | 8 | 4 | 8 | 16 | 8 | 16 | 8 | 633 | 316 | 8 | 2 | 8 | 2 | 8 | 4 | 8 | 4 | 4 | 16
C=CCc1ccc(O)c(-c2cc(CC=C)ccc2OCC[N+](C)(C)CC(=O)N(CCCC)CCCC)c1.[Br-] | 16 | 4 | 4 | 2 | 16 | 8 | 16 | 4 | 786 | 393 | 2 | 2 | 2 | 1 | 4 | 2 | 4 | 4 | 2 | 2
C=CCc1ccc(OCCCC[N+](C)(C)CC(=O)NCCCC)c(-c2ccc(OCCCC[N+](C)(C)CC(=O)NCCCC)c(CC=C)c2)c1.[Br-].[Br-] | 8 | 4 | 1 | 4 | 8 | 8 | 16 | 2 | 531 | 266 | 2 | 2 | 4 | 2 | 2 | 4 | 2 | 2 | 4 | 4
C=CCc1ccc(O)c(-c2cc(CC=C)ccc2OCC[N+](C)(C)CC(=O)NCCCC)c1.[Br-] | 32 | 4 | 8 | 4 | 32 | 32 | 32 | 4 | 573 | 143 | 4 | 4 | 4 | 2 | 8 | 4 | 8 | 8 | 4 | 4
C=CCc1ccc(O)c(-c2ccc(O)c(CC=C)c2)c1 [HONOKIOL] | > 128 | – | 64 (≈ 240 µM) | – | > 128 | > 128 | > 128 | – | 534 | – | – | 64 (≈ 240 µM) | – | 32 (≈ 120 µM) | – | – | – | – | 32 (≈ 120 µM) | –
C=CCc1ccc(OCCCC[N+](C)(C)CC(=O)NCCC)c(-c2ccc(OCCCC[N+](C)(C)CC(=O)NCCC)c(CC=C)c2)c1.[Br-].[Br-] | 8 | 4 | 2 | 8 | 8 | 8 | 8 | 4 | 644 | 322 | 8 | 2 | 8 | 2 | 4 | 8 | 4 | 4 | 2 | 4
C=CCc1ccc(O)c(-c2cc(CC=C)ccc2O)c1 [MAGNOLOL] | > 128 | – | 64 (≈ 240 µM) | – | > 128 | > 128 | > 128 | – | 463 | – | – | 32 (≈ 120 µM) | – | 16 (≈ 60.1 µM) | – | – | – | – | 16 (≈ 60.1 µM) | –
CN[C@H](CC(C)C)C(=O)N[C@H]1C(=O)N[C@@H](CC(N)=O)C(=O)N[C@H]2C(=O)N[C@H]3C(=O)N[C@H](C(=O)N[C@H](C(=O)O)c4cc(O)cc(O)c4-c4cc3ccc4O)[C@H](O)c3ccc(c(Cl)c3)Oc3cc2cc(c3O[C@@H]2O[C@H](CO)[C@@H](O)[C@H](O)[C@H]2O[C@H]2C[C@](C)(N)[C@H](O)[C@H](C)O2)Oc2ccc(cc2Cl)[C@H]1O [VANCOMYCIN] | – | – | 2 (≈ 1.38 µM) | – | – | – | – | – | – | – | – | – | – | 0.25 (≈ 0.173 µM) | – | – | – | – | 0.5 (≈ 0.345 µM) | –
